Measured values from ChEMBL document CHEMBL3739366, “Discovery of HTL6641, a dual orexin receptor antagonist with differentiated pharmacodynamic properties” (Medchemcomm, 2015).
The source made the active and inactive calls. No cut-off for these calls is given here.

Target: T1, Orexin/Hypocretin receptor type 1 (Homo sapiens, UniProt O43613)
T1 sequence (O43613 whole entry): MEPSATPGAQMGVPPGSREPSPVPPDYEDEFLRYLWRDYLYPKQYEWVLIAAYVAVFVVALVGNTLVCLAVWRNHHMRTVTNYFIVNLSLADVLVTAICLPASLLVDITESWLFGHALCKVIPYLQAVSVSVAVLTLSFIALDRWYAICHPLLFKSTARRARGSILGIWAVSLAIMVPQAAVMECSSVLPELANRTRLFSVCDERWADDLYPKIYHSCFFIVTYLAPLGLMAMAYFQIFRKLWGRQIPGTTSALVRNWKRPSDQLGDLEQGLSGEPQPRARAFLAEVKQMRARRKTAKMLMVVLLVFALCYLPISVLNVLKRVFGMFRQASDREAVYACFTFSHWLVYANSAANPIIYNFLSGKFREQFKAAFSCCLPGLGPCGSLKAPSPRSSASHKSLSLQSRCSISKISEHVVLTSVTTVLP
Assay: Displacement of [3H]-4-(2,6-Difluoro-4-methoxybenzyl)-2-(5,6-dimethoxypyridin-3-yl)-2H-1,2,4-benzothiadiazin-3(4H)-one 1,1-dioxide from orexin receptor-1 (unknown origin) after 90 mins
Conditions: not given

First: COc1ccc(N2C(=O)N(Cc3ccc(Cl)cc3F)c3ccccc3S2(=O)=O)cc1OC
Second: COc1ccc(N2C(=O)N(Cc3ccc(F)cc3Cl)c3ccccc3S2(=O)=O)cc1OC
The Ki of the first is lower: 63.1 nM for the first, > 2510 nM for the second.

Going from `COc1ccc(N2C(=O)N(Cc3c(F)cc(C)cc3Cl)c3ccccc3S2(=O)=O)cc1OC` to `COc1ccc(N2C(=O)N(Cc3c(F)cc(F)cc3Cl)c3ccccc3S2(=O)=O)cc1OC`, the Ki rises from 6.31 nM to 25.1 nM (4-fold). The first binds more tightly here.

Compared with `COc1ccc(N2C(=O)N(Cc3c(F)cccc3Cl)c3ccccc3S2(=O)=O)cc1OC`, `COc1cc(F)c(CN2C(=O)N(c3ccc(OC)c(OC)c3)S(=O)(=O)c3ccccc32)c(Cl)c1` is 20-fold lower in Ki: 7.94 nM for the first, 0.398 nM for the second. The second binds more tightly here.

`COc1cc(N2C(=O)N(Cc3c(F)cc(F)cc3F)c3ccccc3S2(=O)=O)cc(OC)n1` and `COc1cc(N2C(=O)N(Cc3c(F)cc(F)cc3F)c3ccccc3S2(=O)=O)cnc1OC` are within 1.5-fold of each other in Ki: 15.8 nM for the first, 12.6 nM for the second.

With `COc1ccc(-n2c(=O)c3ccccc3n(Cc3ccccc3Cl)c2=O)cc1OC` the Ki was > 6310 nM.

Target: T2, Orexin receptor type 2 (Homo sapiens, UniProt O43614)
T2 sequence (O43614 whole entry): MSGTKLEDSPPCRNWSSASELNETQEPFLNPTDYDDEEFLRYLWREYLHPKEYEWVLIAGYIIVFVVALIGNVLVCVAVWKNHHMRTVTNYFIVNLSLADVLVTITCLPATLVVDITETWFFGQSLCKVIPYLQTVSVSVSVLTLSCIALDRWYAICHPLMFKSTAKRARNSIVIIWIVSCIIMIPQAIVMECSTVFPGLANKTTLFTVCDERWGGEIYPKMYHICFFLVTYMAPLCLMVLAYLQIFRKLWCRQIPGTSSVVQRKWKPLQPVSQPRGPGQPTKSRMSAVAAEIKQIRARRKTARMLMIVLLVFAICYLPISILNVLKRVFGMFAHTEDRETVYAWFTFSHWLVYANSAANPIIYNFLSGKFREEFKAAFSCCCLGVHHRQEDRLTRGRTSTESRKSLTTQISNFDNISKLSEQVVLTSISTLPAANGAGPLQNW
Assay: Displacement of [3H]EMPA from human orexin receptor-2 expressed in HEK293 cells after 90 mins by scintillation counting
Format: cell-based
Conditions: not given

First: COc1cc(F)c(CN2C(=O)N(c3ccc(OC)c(OC)n3)S(=O)(=O)c3ccccc32)c(F)c1
Second: COc1cc(F)c(CN2C(=O)N(c3ccc(OC)c(OC)c3)S(=O)(=O)c3ccccc32)c(Cl)c1
The Ki of the first is 2-fold higher: 0.2 nM for the first, 0.1 nM for the second. The second binds more tightly here.

Going from `COc1ccc(N2C(=O)N(Cc3ccc(Cl)cc3F)c3ccccc3S2(=O)=O)cc1OC` to `COc1ccc(N2C(=O)N(Cc3ccc(F)cc3Cl)c3ccccc3S2(=O)=O)cc1OC`, the Ki rises from 10 nM to 25.1 nM (2.5-fold).

`COc1ccc(N2C(=O)N(Cc3c(F)cc(C)cc3Cl)c3ccccc3S2(=O)=O)cc1OC` and `COc1ccc(N2C(=O)N(Cc3c(F)cc(F)cc3Cl)c3ccccc3S2(=O)=O)cc1OC` are within 1.5-fold of each other in Ki: 0.794 nM for the first, 1 nM for the second.

First: COc1ccc(N2C(=O)N(Cc3c(F)cccc3Cl)c3ccccc3S2(=O)=O)cc1OC
Second: COc1ccc(N2C(=O)N(Cc3ccc4c(c3)OCO4)c3ccccc3S2(=O)=O)cc1OC
The Ki of the first is 320-fold lower: 0.794 nM for the first, 251 nM for the second.

Compared with `COc1cc(N2C(=O)N(Cc3c(F)cc(F)cc3F)c3ccccc3S2(=O)=O)cc(OC)n1`, `COc1cc(N2C(=O)N(Cc3c(F)cc(F)cc3F)c3ccccc3S2(=O)=O)cnc1OC` is 4-fold higher in Ki: 1.26 nM for the first, 5.01 nM for the second. The first binds more tightly here.

For `COc1ccc(-n2c(=O)c3ccccc3n(Cc3ccccc3Cl)c2=O)cc1OC`, the Ki was > 10000 nM.

Test system: not listed separately
Assay: Half life in rat liver microsomes
Format: ADME
Conditions: not given

Going from `COc1cc(F)c(CN2C(=O)N(c3ccc(OC)c(OC)n3)S(=O)(=O)c3ccccc32)c(F)c1` to `COc1cc(N2C(=O)N(Cc3c(F)cc(F)cc3F)c3ccccc3S2(=O)=O)cnc1OC`, the half-life rises from 8 min to 28 min (3.5-fold).

`COc1cc(N2C(=O)N(Cc3c(F)cc(F)cc3F)c3ccccc3S2(=O)=O)cc(OC)n1` gave a half-life of 16 min.

Test system: not listed separately
Assay: Clearance in Sprague-Dawley rat at 1 mg/kg, iv
Format: ADME, organism-based
Conditions: in vivo

`COc1cc(N2C(=O)N(Cc3c(F)cc(F)cc3F)c3ccccc3S2(=O)=O)cc(OC)n1` and `COc1cc(N2C(=O)N(Cc3c(F)cc(F)cc3F)c3ccccc3S2(=O)=O)cnc1OC` are within 1.5-fold of each other in clearance: 17 mL/min/kg for the first, 18 mL/min/kg for the second.

Test system: not listed separately
Assay: Clearance in beagle dog at 2 mg/kg, iv
Format: ADME, organism-based, Canis lupus familiaris
Conditions: in vivo

Work on `COc1cc(N2C(=O)N(Cc3c(F)cc(F)cc3F)c3ccccc3S2(=O)=O)cnc1OC` yielded a clearance of 5 mL/min/kg.

Test system: not listed separately
Assay: Volume of distribution at steady state in Sprague-Dawley rat at 1 mg/kg, iv
Format: ADME, organism-based
Conditions: in vivo, read-out: Vdss

Compared with `COc1cc(N2C(=O)N(Cc3c(F)cc(F)cc3F)c3ccccc3S2(=O)=O)cc(OC)n1`, `COc1cc(N2C(=O)N(Cc3c(F)cc(F)cc3F)c3ccccc3S2(=O)=O)cnc1OC` is 1.8-fold lower in Vd: 3.9 L/kg for the first, 2.2 L/kg for the second.

Test system: not listed separately
Assay: Volume of distribution at steady state in beagle dog at 2 mg/kg, iv
Format: ADME, organism-based, Canis lupus familiaris
Conditions: in vivo, read-out: Vdss

Compound `COc1cc(N2C(=O)N(Cc3c(F)cc(F)cc3F)c3ccccc3S2(=O)=O)cnc1OC` has a Vd of 3.6 L/kg.

Test system: not listed separately
Assay: Ratio of drug level in brain to plasma in Sprague-Dawley rat at 1 mg/kg, iv after 0.5 hrs
Format: ADME, organism-based
Conditions: read-out: BPR

First: COc1cc(N2C(=O)N(Cc3c(F)cc(F)cc3F)c3ccccc3S2(=O)=O)cc(OC)n1
Second: COc1cc(N2C(=O)N(Cc3c(F)cc(F)cc3F)c3ccccc3S2(=O)=O)cnc1OC
The Kp at 0.5 h of the first is higher: 1.51 for the first, 0.77 for the second.

Test system: not listed separately
Assay: Ratio of drug level in cerebrospinal fluid to brain in Sprague-Dawley rat at 1 mg/kg, iv after 0.5 hrs
Format: ADME, organism-based, CSF/Brain
Conditions: in vivo

`COc1cc(N2C(=O)N(Cc3c(F)cc(F)cc3F)c3ccccc3S2(=O)=O)cnc1OC` showed a Ratio of 0.01.

Same assay, conditions: in vivo, BLD = below limit of detection

With `COc1cc(N2C(=O)N(Cc3c(F)cc(F)cc3F)c3ccccc3S2(=O)=O)cc(OC)n1` the Ratio was “BLD”.

Test system: not listed separately
Assay: Half life in Sprague-Dawley rat at 2 mg/kg, po
Format: ADME, organism-based
Conditions: in vivo

Compared with `COc1cc(N2C(=O)N(Cc3c(F)cc(F)cc3F)c3ccccc3S2(=O)=O)cc(OC)n1`, `COc1cc(N2C(=O)N(Cc3c(F)cc(F)cc3F)c3ccccc3S2(=O)=O)cnc1OC` is 2.1-fold lower in half-life: 198 min for the first, 96 min for the second.

Test system: not listed separately
Assay: Half life in beagle dog at 2 mg/kg, po
Format: ADME, organism-based, Canis lupus familiaris
Conditions: in vivo

Compound `COc1cc(N2C(=O)N(Cc3c(F)cc(F)cc3F)c3ccccc3S2(=O)=O)cnc1OC` has a half-life of 636 min.

Test system: Rattus norvegicus
Assay: AUC (infinity) in Sprague-Dawley rat at 2 mg/kg, po
Format: ADME, organism-based
Set-up: dose 2 mg/kg, route oral, time infinity
Conditions: in vivo

`COc1cc(N2C(=O)N(Cc3c(F)cc(F)cc3F)c3ccccc3S2(=O)=O)cc(OC)n1` and `COc1cc(N2C(=O)N(Cc3c(F)cc(F)cc3F)c3ccccc3S2(=O)=O)cnc1OC` are within 1.5-fold of each other in AUC: 705 ng·h/mL for the first, 558 ng·h/mL for the second.

Test system: Canis familiaris
Assay: AUC (infinity) in beagle dog at 2 mg/kg, po
Format: ADME, organism-based, Canis lupus familiaris
Set-up: dose 2 mg/kg, route oral, time infinity
Conditions: in vivo

For `COc1cc(N2C(=O)N(Cc3c(F)cc(F)cc3F)c3ccccc3S2(=O)=O)cnc1OC`, the AUC was 6960 ng·h/mL.

Test system: not listed separately
Assay: Tmax in Sprague-Dawley rat at 2 mg/kg, po
Format: ADME, organism-based
Conditions: in vivo

First: COc1cc(N2C(=O)N(Cc3c(F)cc(F)cc3F)c3ccccc3S2(=O)=O)cc(OC)n1
Second: COc1cc(N2C(=O)N(Cc3c(F)cc(F)cc3F)c3ccccc3S2(=O)=O)cnc1OC
The Tmax of the first is 3.8-fold lower: 24 min for the first, 90 min for the second.

Test system: not listed separately
Assay: Tmax in beagle dog at 2 mg/kg, po
Format: ADME, organism-based, Canis lupus familiaris
Conditions: in vivo

`COc1cc(N2C(=O)N(Cc3c(F)cc(F)cc3F)c3ccccc3S2(=O)=O)cnc1OC` showed a Tmax of 24 min.

Test system: not listed separately
Assay: Oral bioavailability in Sprague-Dawley rat at 2 mg/kg
Format: ADME, organism-based
Conditions: in vivo

Compared with `COc1cc(N2C(=O)N(Cc3c(F)cc(F)cc3F)c3ccccc3S2(=O)=O)cc(OC)n1`, `COc1cc(N2C(=O)N(Cc3c(F)cc(F)cc3F)c3ccccc3S2(=O)=O)cnc1OC` is lower in bioavailability: 36% for the first, 29% for the second.

Test system: not listed separately
Assay: Oral bioavailability in beagle dog at 2 mg/kg
Format: ADME, organism-based, Canis lupus familiaris
Conditions: in vivo

`COc1cc(N2C(=O)N(Cc3c(F)cc(F)cc3F)c3ccccc3S2(=O)=O)cnc1OC` gave a bioavailability of 100%.

Test system: Rattus norvegicus
Assay: Ex-vivo receptor occupancy of orexin receptor-2 Sprague-Dawley rat frontal cortex using [3H]EMPA at 1 mg/kg, po after 1 hr by autoradiography relative to control
Format: functional
Conditions: not given

Compound `Cc1ccc(-n2nccn2)c(C(=O)N2CCN(c3nc4cc(Cl)ccc4o3)CC[C@H]2C)c1` [SUVOREXANT] has an Occ of 31%.

Test system: not listed separately
Assay: Plasma concentration in Sprague-Dawley rat plasma at 1 mg/kg, po after 1 hr
Format: ADME, organism-based
Conditions: not given

Work on `Cc1ccc(-n2nccn2)c(C(=O)N2CCN(c3nc4cc(Cl)ccc4o3)CC[C@H]2C)c1` [SUVOREXANT] yielded a concentration at 1 h of 22 ng/mL.

Test system: Rattus norvegicus
Assay: Antiinsomnic activity in CD1 rat assessed as effect on sleep architecture at 30 mg/kg, po administered at 18 hrs at circadian time
Format: functional, organism-based
Conditions: not given

In the case of `Cc1ccc(-n2nccn2)c(C(=O)N2CCN(c3nc4cc(Cl)ccc4o3)CC[C@H]2C)c1` [SUVOREXANT], the Activity is reported as “Active”.

Target: T3, Orexin/Hypocretin receptor type 1 (Homo sapiens) (UniProt O43613)
T3 sequence (whole entry): T1 sequence (O43613 whole entry)
Conditions: not given

Work on `Cc1ccc(-n2nccn2)c(C(=O)N2CCN(c3nc4cc(Cl)ccc4o3)CC[C@H]2C)c1` [SUVOREXANT] yielded a T1/2 of 24 min.

Target: Orexin/Hypocretin receptor type 2 (Homo sapiens) (UniProt O43614)
Conditions: not given

For `COc1cc(N2C(=O)N(Cc3c(F)cc(F)cc3F)c3ccccc3S2(=O)=O)cnc1OC`, the T1/2 was 4.3 min.

Target: T4, Orexin receptor type 2 (Homo sapiens) (UniProt O43614)
T4 sequence (whole entry): T2 sequence (O43614 whole entry)
Conditions: not given

In the case of `Cc1ccc(-n2nccn2)c(C(=O)N2CCN(c3nc4cc(Cl)ccc4o3)CC[C@H]2C)c1` [SUVOREXANT], the T1/2 is reported as 210 min.

Target: T4, Orexin receptor type 2 (Homo sapiens)
Conditions: not given
Remark: another data set of the same source

Compared with `Cc1ccc(-n2nccn2)c(C(=O)N2CCN(c3nc4cc(Cl)ccc4o3)CC[C@H]2C)c1` [SUVOREXANT], `COc1cc(N2C(=O)N(Cc3c(F)cc(F)cc3F)c3ccccc3S2(=O)=O)cnc1OC` is 26-fold lower in T1/2: 79 min for the first, 3 min for the second.
